Experimental data from US20060025390A1, “Treatment of hormone allergy and related symptoms and disorders” (priority 2004, published 2006).

Columns and labels:
[1] = system: serum IgE anti-estrogen antibodies; test: ELISA binding of IgE estrogen antibodies to different hormones in solid phase; design: species or system human; settings: for IgE binding (optical density): hormone in solid phase, 405 nm; for IgE % reaction: relative to estrogen = 100
Procedure: (§1) The ELISA inhibition method was used to determine specificity and cross-reactivity between different hormones and to ensure the degree of human IgG, IgM and IgE estrogen or progesterone binding to estrogen or progesterone in solid phase. […] 100 μl of sera from three different patients with high IgG, IgM or IgE antibodies against 17-α-hydroxyprogesterone was added to all wells. After shaking and incubation for 1 hr at room temperature, addition of enzyme labeled anti-human IgG, IgM or IgE, repeat of incubation, washing, and addition of substrate, color development was measured at 405 nm. Results were calculated as percentage of anti-17-α-hydroxyprogesterone binding to 17-α-hydroxyprogesterone and other hormones. Also, anti-estrogen binding to estrogen and other hormones in solid phase by progesterone in liquid phase was performed and calculated in a similar manner.
(§2) Human sera containing 17-α-hydroxyprogesterone IgG-, IgM- and IgE-binding antibodies were reacted against progesterone, estrogen, hydrocortisone and cholesterol. In comparison to 100% binding of anti-17-α-hydroxyprogesterone-binding to 17-α-hydroxyprogesterone, the IgG anti-17-α-hydroxyprogesterone-binding to progesterone, estrogen, hydrocortisone and cholesterol was 69-77%, 25-30%, 39-53%, and less than 10% respectively (Table 4). The % binding of serum IgM and IgE anti-17-α-hydroxyprogesterone to 17-1-hydroxyprogesterone, progesterone, estrogen, hydrocortisone and cholesterol was similar to the binding of IgG. This binding of anti-17-α-hydroxyprogesterone to progesterone was the highest, followed by hydrocortisone, then estrogen, to almost no binding with cholesterol. Similar to this, human sera with IgG, IgM and IgE binding antibodies against estrogen were reacted with progesterone, 17-α-hydroxyprogesterone, hydrocortisone and cholesterol, in the presence of estrogen.

[2] = system: serum IgG anti-17-α-hydroxyprogesterone antibodies; test: ELISA binding of IgG 17-α-hydroxyprogesterone antibodies to different hormones in solid phase; design: species or system human; settings: for IgG binding (optical density): hormone in solid phase, 405 nm; for IgG % reaction: relative to 17-α-hydroxyprogesterone = 100
Procedure: as §1, §2

[3] = system: serum IgG anti-estrogen antibodies; test: Competition ELISA: absorption of serum IgG anti-estrogen with specific and non-specific antigens; type: binding, human; settings: for IgG level after absorption: absorption with 250 μg/mL, optical density 405 nm
Procedure: (§3) For this, microtiter plates were coated with hormones and blocked by the addition of 2% BSA in PBST. 100 μl of serum diluent buffer was added to all wells. […] After 60 minutes incubation 100 μl serum anti-estrogen or anti-progesterone was added to all wells. […] Results were calculated as percentage of inhibition in antigen-antibody reaction.
(§4) To examine whether antibodies to estrogen or progesterone are specific or cross-reactive, we performed competition ELISA by adding specific and non-specific antigens in liquid phase and examined prevention of serum antibody binding to the antigen in solid phase. […] For IgE anti-estrogen, this inhibition by estrogen-BSA was between 54-62%, and with progesterone-BSA, from 37-43%. […] This cross-reaction between estrogen and progesterone antibodies may be due to structural similarities between these two hormones.

[4] = system: serum IgE anti-estrogen antibodies; test: Competition ELISA: absorption of serum IgE anti-estrogen with specific and non-specific antigens; type: binding, human; settings: for IgE level after absorption: absorption with 250 μg/mL, optical density 405 nm
Procedure: as §3, §4

[5] = system: serum IgE anti-17-α-hydroxyprogesterone antibodies; test: ELISA binding of IgE 17-α-hydroxyprogesterone antibodies to different hormones in solid phase; design: species or system human; settings: for IgE binding (optical density): hormone in solid phase, 405 nm; for IgE % reaction: relative to 17-α-hydroxyprogesterone = 100
Procedure: as §1, §2

[6] = system: patients experiencing hormone allergy symptoms; test: Clinical responses of hormone allergy symptoms to intradermal dilute progesterone (or estrogen); type: in vivo, human; settings: 0.4 mg intradermally
Text: Patients experiencing several hormone allergy symptoms experienced relief when administered dilute doses of progesterone either sublingually or intradermally.
The symptoms measured were irritation or pain in the neck, nose, eyes, throat, ear, skin, back, hips, upper extremities and lower extremities, headache, and shortness of breath. […]
Patients were designated as responding patients in Table 1 if they experienced any relief of the indicated symptom. Patients were also asked to estimate the amount of improvement in the symptom, an average of which is
In Table 2 the probability that positive results (i.e. patients responding to treatment) were due to random effects was calculated using standard statistical analysis of patient tests. It was assumed that if the treatment has no effect, there is a 50% chance that a patient will indicate a positive response and a 50% chance that a patient will indicate a negative response. From this assumption, coupled with the actual data, one may calculate the probability that positive responses are due to an actual effect of the treatment and not simply random effects. In general, results with a less than 1% chance of being random are considered highly significant. Results with a less than 5% chance of being random are normally conclusively labeled as nonrandom. Thus, the results observed for most of the symptoms in Table 2 are highly significant, with only the results for ear irritation and pain falling merely in the nonrandom category.
Hormone samples may be prepared in any way suitable for the intended administration route. For administration through intradermal injection, samples may be prepared as they were in the studies of Examples 2 and 3. Specifically, the progesterone was formulated from commercially available injectable progesterone. Each ml of the final formulation contained […] of progesterone and 10% benzyl alcohol as a preservative in sesame oil. 0.1 ml was administered per patient intradermally. Estrogen samples were similarly prepared.

[7] = system: serum IgM anti-17-α-hydroxyprogesterone antibodies; test: ELISA binding of IgM 17-α-hydroxyprogesterone antibodies to different hormones in solid phase; design: species or system human; settings: for IgM binding (optical density): hormone in solid phase, 405 nm; for IgM % reaction: relative to 17-α-hydroxyprogesterone = 100
Procedure: as §1, §2

[8] = system: serum IgM anti-estrogen antibodies; test: ELISA binding of IgM estrogen antibodies to different hormones in solid phase; design: species or system human; settings: for IgM binding (optical density): hormone in solid phase, 405 nm; for IgM % reaction: relative to estrogen = 100
Procedure: as §1, §2

[9] = system: serum IgG anti-estrogen antibodies; test: ELISA binding of IgG estrogen antibodies to different hormones in solid phase; design: species or system human; settings: for IgG binding (optical density): hormone in solid phase, 405 nm; for IgG % reaction: relative to estrogen = 100
Procedure: as §1, §2

[10] = relative to estrogen, over three sera
[11] = antigen in liquid phase, over the three sera

## estrogen
[1]; [10]
  IgE anti-estrogen binding: 100%
[1]; sample 1
  IgE binding (optical density): 0.8
  IgE % reaction: −100%
[1]; sample 2
  IgE binding (optical density): 1.5
  IgE % reaction: −100%
[1]; sample 3
  IgE binding (optical density): 1.6
  IgE % reaction: −100%
[2]; in comparison to 100% binding to 17-α-hydroxyprogesterone, over three sera
  IgG anti-17-α-hydroxyprogesterone binding: 25-30%
[2]; sample 1
  IgG binding (optical density): 0.48
  IgG % reaction: −30%
[2]; sample 2
  IgG binding (optical density): 0.24
  IgG % reaction: −25%
[2]; sample 3
  IgG binding (optical density): 0.18
[3]; [11]
  inhibition of anti-estrogen binding to estrogen (IgG): did not significantly absorb
[3]; serum sample 1, before absorption 1.83
  IgG level after absorption: 1.53
[3]; serum sample 2, before absorption 1.25
  IgG level after absorption: 0.95
[3]; serum sample 3, before absorption 0.76
  IgG level after absorption: 0.54
[4]; [11]
  inhibition of IgE anti-estrogen binding: did not significantly absorb
[4]; serum sample 1, before absorption 2.15
  IgE level after absorption: 1.70
[4]; serum sample 2, before absorption 1.66
  IgE level after absorption: 1.30
[4]; serum sample 3, before absorption 1.34
  IgE level after absorption: 0.86
[5]; sample 1
  IgE binding (optical density): 0.42
  IgE % reaction: −29%
[5]; sample 2
  IgE binding (optical density): 0.75
  IgE % reaction: −31%
[5]; sample 3
  IgE binding (optical density): 0.37
  IgE % reaction: −25%
[6]
  symptom relief in patients not relieved by progesterone treatment: experience relief
[7]; sample 1
  IgM binding (optical density): 0.4
  IgM % reaction: −31%
[7]; sample 2
  IgM binding (optical density): 0.41
  IgM % reaction: −25%
[7]; sample 3
  IgM binding (optical density): 0.29
  IgM % reaction: −32%
[8]; [10]
  IgM anti-estrogen binding: 100%
[8]; sample 1
  IgM binding (optical density): 0.9
  IgM % reaction: −100%
[8]; sample 2
  IgM binding (optical density): 2.1
  IgM % reaction: −100%
[8]; sample 3
  IgM binding (optical density): 1.3
  IgM % reaction: −100%
[9]; [10]
  IgG anti-estrogen binding: 100%
[9]; sample 1
  IgG binding (optical density): 1.2
  IgG % reaction: −100%
[9]; sample 2
  IgG binding (optical density): 1.8
  IgG % reaction: −100%
[9]; sample 3
  IgG binding (optical density): 0.92
  IgG % reaction: −100%
